# Source: PubChem BioAssay (NCI)
#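 Cultured in 96-well plates, cells were exposed to test compound for 48 hours across five concentrations. GI50 is the concentration that inhibits growth by half. The concentration for full growth arrest is given as TGI.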
# How the values were obtained:
# Assay in all cases: DTP human tumour cell line panel, 48 h
# SK-MEL-5 melanoma = test system: SK-MEL-5 melanoma
# NCI-H522 lung = test system: NCI-H522 lung
# A549 NSCLC = test system: A549 NSCLC
# NCI/ADR-RES ovarian = test system: NCI/ADR-RES ovarian
# OVCAR-5 ovarian = test system: OVCAR-5 ovarian
# PC-3 prostate = test system: PC-3 prostate
# OVCAR-3 ovarian = test system: OVCAR-3 ovarian
# SF-268 CNS = test system: SF-268 CNS
# SW-620 colon = test system: SW-620 colon
# BT-549 breast = test system: BT-549 breast
# MCF7 breast = test system: MCF7 breast
# RPMI-8226 leukemia = test system: RPMI-8226 leukemia
# NCI-H23 lung = test system: NCI-H23 lung
# LOX IMVI melanoma = test system: LOX IMVI melanoma
# CAKI-1 renal = test system: CAKI-1 renal
# HS 578T breast = test system: HS 578T breast
# KM12 colon = test system: KM12 colon
# SNB-19 CNS = test system: SNB-19 CNS
# MDA-MB-435 = test system: MDA-MB-435
# RXF 393 renal = test system: RXF 393 renal
# UO-31 renal = test system: UO-31 renal
# HT29 colon = test system: HT29 colon
# HCT-15 colon = test system: HCT-15 colon
# OVCAR-4 ovarian = test system: OVCAR-4 ovarian
# SK-MEL-2 melanoma = test system: SK-MEL-2 melanoma
smiles,measurement,setting,value
O=C1C(Cl)=C(Nc2cccc(O)c2)C(=O)N1c1ccccc1Cl,GI50,SK-MEL-5 melanoma,18.8 µM
same,TGI,SK-MEL-5 melanoma,65.6 µM
same,GI50,NCI-H522 lung,17.3 µM
same,TGI,NCI-H522 lung,41.8 µM
same,GI50,A549 NSCLC,50 µM
same,TGI,A549 NSCLC,> 100 µM
same,GI50,NCI/ADR-RES ovarian,56.3 µM
same,TGI,NCI/ADR-RES ovarian,> 100 µM
same,GI50,OVCAR-5 ovarian,55.2 µM
same,TGI,OVCAR-5 ovarian,> 100 µM
same,GI50,PC-3 prostate,10.7 µM
same,TGI,PC-3 prostate,31.2 µM
same,GI50,OVCAR-3 ovarian,21.5 µM
same,TGI,OVCAR-3 ovarian,48.5 µM
same,GI50,SF-268 CNS,13.6 µM
same,TGI,SF-268 CNS,60.6 µM
same,GI50,SW-620 colon,52.3 µM
same,TGI,SW-620 colon,> 100 µM
same,GI50,BT-549 breast,21.8 µM
same,TGI,BT-549 breast,75.4 µM
same,GI50,MCF7 breast,29.8 µM
same,TGI,MCF7 breast,> 100 µM
same,GI50,RPMI-8226 leukemia,10.4 µM
same,TGI,RPMI-8226 leukemia,35.1 µM
same,GI50,NCI-H23 lung,32.2 µM
same,TGI,NCI-H23 lung,> 100 µM
same,GI50,LOX IMVI melanoma,20.1 µM
same,TGI,LOX IMVI melanoma,52.6 µM
same,GI50,CAKI-1 renal,40.3 µM
same,TGI,CAKI-1 renal,> 100 µM
same,GI50,HS 578T breast,21 µM
same,TGI,HS 578T breast,77.7 µM
same,GI50,KM12 colon,59.5 µM
same,TGI,KM12 colon,> 100 µM
same,GI50,SNB-19 CNS,40.6 µM
same,TGI,SNB-19 CNS,> 100 µM
same,GI50,MDA-MB-435,37.2 µM
same,TGI,MDA-MB-435,> 100 µM
same,GI50,RXF 393 renal,7.87 µM
same,TGI,RXF 393 renal,41.2 µM
same,GI50,UO-31 renal,32.5 µM
same,TGI,UO-31 renal,> 100 µM
same,GI50,HT29 colon,24.6 µM
same,TGI,HT29 colon,89.2 µM
same,GI50,HCT-15 colon,35.2 µM
same,TGI,HCT-15 colon,> 100 µM
same,GI50,OVCAR-4 ovarian,40.4 µM
same,TGI,OVCAR-4 ovarian,> 100 µM
same,GI50,SK-MEL-2 melanoma,25.5 µM
